Measurements reported in ChEMBL document CHEMBL3880393, “2-(Pyridin-2-ylamino)-pyrido[2,3-d]pyrimidin-7-ones” (2003).

Target: Fibroblast growth factor receptor (Homo sapiens, UniProt P22607+P11362+P22455+P21802)
Assay: Inhibition of FGFR (unknown origin) using poly (4:1) glutamate-tyrosine substrate and [gamma32P]ATP incubated for 10 mins by beta plate counter based assay
Type: protein assay

## O=c1ccc2cnc(Nc3ccccc3)nc2n1C1CCCC1
  IC50: 2980 nM
